From patent publication US12448383B2, “Compounds and methods for treatment of viral infections” (priority 2022, dated 2025) come the findings set out here.

Like-named read-outs stand apart in the source and are kept apart here.

Data set [1] relates to SARS Coronavirus 2 recombinant with NanoLuc (SARS-CoV2-NLuc) in A549-hACE2 cells. In words: organism not typed. The data set is classed as cell-based.
Data set [2] has as its system Respiratory syncytial virus recombinant with luciferase (RSV-Luc5) in Normal Human Bronchial Epithelial (NHBE) cells. In words: microbe, parasite or virus in culture. The data set is classed as cell-based.
The nature of data set [3]: CC50 MT4 cytotoxicity (Cell-Titer Glo). The data set is classed as cell-based. The conditions noted are these: human. The essentials:
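Uninfected MT-4 and HEp-2 cells cultured 4-5 days at 37° C with 3-fold serially diluted compound (15 nM to 100,000 nM). Viability read by Cell-Titer Glo luminescence; untreated and 2 μM puromycin wells set 100% and 0%. CC50 from non-linear regression as concentration reducing viability by 50%.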

Data set [4] is described as follows: GI S9 stability - no PMSF. The data set is classed as in vitro ADME. The conditions noted are these: pH 7.4; human intestinal S9, PMSF-free; read-out: GIS9-HUMAN-NoPMSF T1/2. The essentials: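 Compounds were incubated at 2 μM with PMSF-free intestinal S9 (1 mg/mL protein) in 100 mM PBS, pH 7.4, sampling at 6 time points over 120 min. Parent disappearance and formation of the nucleoside metabolite Reference Compound A were quantified by LC-MS (Q-Exactive) using analyte/internal standard peak area ratios.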

The next data set is described as follows: Plasma stability. The data set is classed as in vitro ADME. Set-up: unit not given here. As to conditions: 37° C., 2 μM substrate. Summed up:
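Reaction mixture was sampled at 0.05, 0.5, 1, 2, 3 and 4 hr into quench solution containing internal standard, then centrifuged and diluted with water. Remaining analyte was measured by LC-MS on a Q-Exactive using a formic acid/acetonitrile gradient, with 5 ppm mass tolerance.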

For data set [5], the system named is Caco-2 cells (clone C2BBe1). In words: CACO-2 permeability. The data set is classed as in vitro ADME. Set-up: unit not given here. The conditions noted are these: for DM Caco2 A to B: apical to basolateral, donor pH 6.5, receiver pH 7.4; for DM Caco2 B to A: basolateral to apical. Summed up:
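Caco-2 monolayers grown 21 days on collagen-coated transwells and checked for integrity by TEER. Donor buffer was HBSS/HEPES/glucose pH 6.5 with 200 μM BNPP; receiver was pH 7.4 with BSA. Compounds were dosed apically or basolaterally for A-to-B and B-to-A transport, with receiver sampling at 1 and 2 h, LC-MS/MS analysis and percent recovery.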
(In general: Passage across Caco-2 layers is used to estimate intestinal permeability.)

Data set [6] in a line: Stability in pH2 buffered solution. The data set is classed as physicochemical. As to conditions: pH2 phosphate buffer, 40° C., 24 h; Table N2. As to the method:
(§1) Example N: Stability in p112 and p117 Buffered Solutions
(§2) The aqueous stability of compounds over a time of 24 hours at 40° C. was assessed. Stability was determined in 50 mM phosphate buffered solutions at both pH2 and pH7, with 150 mM NaCl (to achieve isotonicity). 3-5 mg of solid compounds were added to 7 mL scintillation vials. Acetonitrile was added to each vial to produce a 1 mg/mL stock solution. Stock solutions were diluted to 50 μg/mL in either pH2 or pH7 phosphate buffer, to a volume of 1 mL. For each compound and pH condition, 50 μg/mL samples were prepped in duplicate. One sample was placed on the UPLC tray at 40° C. for analysis, and the second sample was placed in a 40° C. oven for storage. Sample preps for each compound were offset by 40 minutes to account for run time on UPLC.
(§3) Concentration timepoints were measured at 0, 3, 6, 9, and 12 hrs. After 24 hrs, samples in the 40° C. oven were removed and analyzed by UPLC.
(§4) In FIG. 2, % AN stands for % area normalized. That is, % AN is the area of the compound peak relative to the sum of areas of all the peaks in the UPLC chromatogram. For example, if there were two peaks, compound peak with an area of 9 and another peak with an area of 1, then the % AN of the compound peak would be 90%.

Data set [7] is described as follows: Stability in pH7 buffered solution. The data set is classed as physicochemical. The conditions noted are these: pH7 phosphate buffer, 40° C., Table N2. As to the method: as §1, §2, §3, §4
The subject of data set [8] is Respiratory syncytial virus recombinant with luciferase (RSV-Luc5) in HEp-2 cells. In words: microbe, parasite or virus in culture. The data set is classed as cell-based. The conditions noted are these: human respiratory syncytial virus.
The mark [9] stands for this setting: HEp-2, read-out: EC50 RSVFluc-Hep2 384 V2.
Where [10] appears, read: A549; read-out: EC50 SARS CoV2 NanoLuc A549 384.
Where [11] appears, read: read-out: EC50 RSVFluc-NHBE 384 V2.

Broadly, the EC50 is the concentration giving half of the maximal effect. What is called CC50 is the concentration that lowers cell viability or growth by half. On to `CC(C)(OC(=O)OC[C@H]1O[C@@](C#N)(c2ccc3c(N)ncnn23)[C@H](O)[C@@H]1O)C(F)(F)F` [Compound 67, ((2R,3S,4R,5R)-5-(4-aminopyrrolo[2,1-f][1,2,4]triazin-7-yl)-5-cyano-3,4-dihydroxytetrahydrofuran-2-yl)methyl (1,1,1-trifluoro-2-methylpropan-2-yl) carbonate], for which, in data set [1] (48 h; read-out: SARS-CoV2 EC50), the EC50 is 12800 nM. In addition, in data set [2] (72 h, read-out: RSV NHBE EC50), the EC50 was found to be 1520 nM. This molecule also showed a CC50 in data set [3] greater than 50000 nM. Further, the half-life at 2 µM in data set [4] worked out at 10.5 min. The “STA Human Plasma 37” value in the data set “Plasma stability” was found to be 1177.1. In [5], the “DM Caco2 A to B” value is 0.99 and the “DM Caco2 B to A” value was 9.76. In [6], the “pH 2 Stability 24 h % AN” value came out at 95 % AN. Also, in data set [7], the “pH 7 Stability 24 h % AN” value worked out at 91 % AN.

For the molecule `CCC(C)(C)OC(=O)OC[C@H]1O[C@@](C#N)(c2ccc3c(N)ncnn23)[C@H](OC(=O)OC(C)(C)CC)[C@@H]1OC(=O)OC(C)(C)CC` [Compound 60, (2R,3R,4R,5R)-2-(4-aminopyrrolo[2,1-f][1,2,4]triazin-7-yl)-2-cyano-5-((((tert-pentyloxy)carbonyl)oxy)methyl)tetrahydrofuran-3,4-diyl di-tert-pentyl bis(carbonate)], the EC50 in data set [1] (48 h, read-out: SARS-CoV2 EC50) stood at 2680 nM. Also, in data set [2] (72 h, read-out: RSV NHBE EC50), the EC50 is 1580 nM. Moreover, in data set [3] (uninfected MT-4 cells, 4-5 days, read-out: MT4 CC50), the CC50 is 32900 nM. In data set [4], the half-life at 2 µM was 44.9 min. Also, the “STA Human Plasma 37” value in the data set “Plasma stability” is 1584. Moreover, in data set [5], the “DM Caco2 A to B” value was 0.12 and the “DM Caco2 B to A” value is 0.32. Further, the “pH 2 Stability 24 h % AN” value in data set [6] is given as 0 % AN. Also, the “pH 7 Stability 24 h % AN” value in data set [7] came out at 0 % AN.

What is called logD is the decadic logarithm of the distribution of all forms, ionised or not, between an organic phase and buffer at a given pH. On to `COc1ccc(CCOC(=O)OC[C@H]2O[C@@](C#N)(c3ccc4c(N)ncnn34)[C@H](O)[C@@H]2O)cc1` [Compound 112, ((2R,3S,4R,5R)-5-(4-aminopyrrolo[2,1-f][1,2,4]triazin-7-yl)-5-cyano-3,4-dihydroxytetrahydrofuran-2-yl)methyl (4-methoxyphenethyl) carbonate], for which the half-maximal effective concentration (EC50) in data set [8] (setting [9]) came out at 181 nM; in data set [1] (setting [10]), 2110 nM; in [2] (setting [11]) it was 454 nM. Also, the CC50 in data set [3] is greater than 50000 nM. For the same molecule, the half-life at 2 µM in data set [4] turned out to be 1.77 min. Also, the “STA Human Plasma 37” value in “Plasma stability” is listed as 28.8. Further, the “DM Caco2 A to B” value in [5] was 2.53. Moreover, the “DM Caco2 B to A” value in [5] amounted to 15.81. The molecule also registered a logD in “physchem” of 1.8.

Take `CC1=CCC(C(C)(C)OC(=O)OC[C@H]2O[C@@](C#N)(c3ccc4c(N)ncnn34)[C@H](O)[C@@H]2O)CC1` (stereo partly drawn) [Compound 155, ((2R,3S,4R,5R)-5-(4-aminopyrrolo[2,1-f][1,2,4]triazin-7-yl)-5-cyano-3,4-dihydroxytetrahydrofuran-2-yl)methyl (2-(4-methylcyclohex-3-en-1-yl)propan-2-yl) carbonate]: the EC50 was 1570 nM in data set [8] (setting [9]), 3190 nM in [1] (setting [10]) and 1120 nM in data set [2] (setting [11]). This molecule registered a CC50 in data set [3] greater than 50000 nM. The half-life at 2 µM in [4] is 77.5 min. In the data set “Plasma stability”, the “STA Human Plasma 37” value is listed as 1584. The “DM Caco2 A to B” value in data set [5] turned out to be 3.06. In data set [5], the “DM Caco2 B to A” value is 10.35. In the data set “physchem”, this molecule came in with a logD of 2.8.

Regarding `CCCC(=O)Nc1ncnn2c([C@]3(C#N)O[C@H](COC(=O)OCC(C)C)[C@@H](O)[C@H]3O)ccc12` [Compound 21, [(2R,3S,4R,5R)-5-[4-(butanoylamino)pyrrolo[2,1-f][1,2,4]triazin-7-yl]-5-cyano-3,4-dihydroxy-tetrahydrofuran-2-yl]methyl isobutyl carbonate], the EC50 was 2380 nM in [8] (HEp-2, 72 h, read-out: RSV Hep2 EC50); 12900 nM in data set [1] (48 h; read-out: SARS-CoV2 EC50); 2250 nM in [2] (72 h, read-out: RSV NHBE EC50). In data set [3], this molecule displayed a CC50 greater than 50000 nM. Further, in [5], the “DM Caco2 A to B” value came to 1.36. Further, in data set [5], the “DM Caco2 B to A” value amounted to 8.33. For the same molecule, the “pH 2 Stability 24 h % AN” value in [6] worked out at 0 % AN. Besides, the “pH 7 Stability 24 h % AN” value in data set [7] came out at 92 % AN.

Consider `N#C[C@@]1(c2ccc3c(N)ncnn23)O[C@H](COC(=O)OCC2(c3ccccc3)CC2)[C@@H](O)[C@H]1O` [Compound 116, ((2R,3S,4R,5R)-5-(4-aminopyrrolo[2,1-f][1,2,4]triazin-7-yl)-5-cyano-3,4-dihydroxytetrahydrofuran-2-yl)methyl ((1-phenylcyclopropyl)methyl) carbonate], for which the EC50 in data set [8] (setting [9]) was 321 nM; in data set [1] (setting [10]), 822 nM; in [2] (setting [11]), 864 nM. Besides, in data set [3], the CC50 was greater than 50000 nM. In data set [4], the half-life at 2 µM worked out at 0.63 min. Further, in the data set “Plasma stability”, the “STA Human Plasma 37” value came out at 26.4. Further, the “DM Caco2 A to B” value in data set [5] turned out to be 4.18. Further, in [5], the “DM Caco2 B to A” value was found to be 17.53. The molecule further showed a logD in “physchem” of 2.1.

Take `CC1(COC(=O)OC[C@H]2O[C@@](C#N)(c3ccc4c(N)ncnn34)[C@H](O)[C@@H]2O)CC1` [Compound 114, ((2R,3S,4R,5R)-5-(4-aminopyrrolo[2,1-f][1,2,4]triazin-7-yl)-5-cyano-3,4-dihydroxytetrahydrofuran-2-yl)methyl ((1-methylcyclopropyl)methyl) carbonate]: the EC50 in data set [8] (setting [9]) turned out to be 123 nM; in data set [1] (setting [10]), 1120 nM; in data set [2] (setting [11]), 966 nM. Also, the CC50 in data set [3] was greater than 50000 nM. Also, the half-life at 2 µM in [4] turned out to be 1.21 min. Moreover, the “STA Human Plasma 37” value in the data set “Plasma stability” is listed as 26.8. Further, the “DM Caco2 A to B” value in data set [5] was 2.07. Moreover, in data set [5], the “DM Caco2 B to A” value was found to be 11.26. The same molecule came in with a logD in “physchem” of 1.5.

With `N#C[C@@]1(c2ccc3c(N)ncnn23)O[C@H](COC(=O)OC23CC4CC(CC(C4)C2)C3)[C@@H](O)[C@H]1O` [Compound 154, (3S,5S,7S)-adamantan-1-yl (((2R,3S,4R,5R)-5-(4-aminopyrrolo[2,1-f][1,2,4]-triazin-7-yl)-5-cyano-3,4-dihydroxytetrahydrofuran-2-yl)methyl) carbonate], the EC50 is 11700 nM in data set [8] (setting [9]), 34000 nM in [1] (setting [10]) and 11000 nM in data set [2] (setting [11]). In data set [3], the CC50 is greater than 50000 nM. Besides, the half-life at 2 µM in data set [4] was found to be 279 min. Also, the “STA Human Plasma 37” value in “Plasma stability” stood at 1584. Further, in [5], the “DM Caco2 A to B” value amounted to 2.08. In addition, the “DM Caco2 B to A” value in [5] is 14.67. The molecule also had a logD in “physchem” of 2.6.

Turning to `N#CCC1(COC(=O)OC[C@H]2O[C@@](C#N)(c3ccc4c(N)ncnn34)[C@H](O)[C@@H]2O)CC1` [Compound 119, ((2R,3S,4R,5R)-5-(4-aminopyrrolo[2,1-f][1,2,4]triazin-7-yl)-5-cyano-3,4-dihydroxytetrahydrofuran-2-yl)methyl ((1-(cyanomethyl)cyclopropyl)methyl) carbonate], the EC50 was determined as 2200 nM in data set [8] (setting [9]), 8820 nM in data set [1] (setting [10]) and 2190 nM in [2] (setting [11]). Moreover, in data set [3], the half-maximal cytotoxic concentration (CC50) is greater than 50000 nM. The half-life at 2 µM in data set [4] was 2.98 min. Moreover, in the data set “Plasma stability”, the “STA Human Plasma 37” value turned out to be 40.7. Also, in data set [5], the “DM Caco2 A to B” value came to 0.07. In data set [5], the “DM Caco2 B to A” value was found to be 1.91. In “physchem”, the logD is 0.9.
